Several values for one entry are separate records, joined by “and”; a condition that tells them apart may be missing. Equal values may be shown once.
Legend:
[1] = Metabolite profiling by HPLC radiochromatography in plasma, urine and faeces; assay type: in vivo, human; design: key to Plasma (% AUC relative to TRA); share of circulating radioactivity / % of dose excreted, urine: ND: not detected; D: detected by MS, but at concentrations too low to accurately quantify by radiochromatography; details: for % of dose excreted, faeces: faeces collected up to 96-h post-dose; for Plasma (% AUC relative to TRA); share of circulating radioactivity: AUC0-t (unchanged drug or metabolite)/AUC0-48 (TRA) * 100%; for % of dose excreted, urine: urine collected up to 48-h post-dose; for Plasma Cmax: plasma radioactivity concentrations and radiochromatography; for Tmax: male; for Share of the excreted radioactivity / excreted dose: urine plus faeces
Method: Individual plasma samples collected from all subjects at 0.5, 1, 2.5, 8, 24, 36 and 48 h post-dose were analysed for metabolite profiling. A pooled sample (equal volume from 0.5,1,2.5,8 and 24 h) from subject 1 was also used for metabolite profiling. Three volumes of acetonitrile were added to each sample, followed by mixing and centrifu-gation. The supernatant was removed and the pellet was washed twice with acetonitrile. The combined superna-tants were evaporated to dryness under a stream of nitrogen. The residues were re-suspended in acetonitrile: 1% formic acid in water (1:1), assayed for extraction recovery and analysed for metabolite profiling.
For each subject, urine samples were pooled using an equal percentage by volume of the 0-4, 4-8, 8-12 and 12-24-h samples. The 24-48-h urine sample from each subject and a pool of the 0-168-h urine samples from subject 1 were also analysed for metabolite profiling. Samples were mixed and centrifuged prior to the supernatants being transferred to fresh tubes for metabolite profiling analysis.
Faecal homogenates for metabolite profiling were pooled using an equal percentage by weight to generate two pools (0-48 h and 48-96 h) for each subject. An additional pool (0-168 h) was prepared using the samples collected from subject 1. An aliquot (approximately 6 g) of each pool was extracted with three volumes of acetonitrile; samples were mixed and centrifuged. The supernatant was removed and the pellets were extracted twice with an additional 12 mL of acetonitrile each time. The combined supernatants were evaporated to dryness under a stream of nitrogen and the residue was re-suspended in a small volume (approximately 400 μL) of acetonitrile: 1% formic acid in water (1:1). Samples were assayed for extraction recovery prior to metabolite profiling.
HPLC analysis for metabolite profiling was performed using a Shimadzu LC-10ADVP (Shimadzu Corp., Columbia, MD) or a Waters 2695 Alliance Separation Module (Waters Corp., Milford, MA) with the autosampler set to an ambient temperature of approximately 22°C. ASPD-10A VPUV-Vis Detector or a Waters 996 Photodiode array detector set to 254 nm was used to detect UV absorbance. [^14C]Apremilast and metabolites were separated using a Phenomenex Luna C 18(2) column (150 × 4.6 mm, 3 μm; Phenomenex, Torrance, CA) equipped with a RP-18 guard column (15×3.2 mm, 7 μm) or using an ACE 3 C18 column (150 × 4.6 mm, 3 μm; Advanced Chromatography Technologies, Aberdeen, Scotland) equipped with an ACE 3 guard column (10×3mm, 3 μm). The mobile phases used were 0.4% formic acid in water; pH 3.2 with ammonium hydroxide (mobile phase A) and acetonitrile (mobile phase B). The column temperature was 30°C and the flow rate was 0.7mL/min. The linear gradient was delivered as follows: 0-5 min to 100% A; 5-20 min to 85% A; 20-30 min hold at 85% A; 30-50 min to 65% A; 50-60 min to 60% A; 60-70 min to 50% A; 70-75 min to 0% A; hold at 0% A until 80 min; return to initial conditions over 2 min.
Radioactivity profiles for excreta were determined by radiochromatography using liquid chromatography-accurate radioisotope counting stop-flow system (LC-ARC; AIM Research Company, Wilmington, DE). Radioactivity was detected using a β-Ram Radioflow detector (IN/US Systems, Brandon, FL) equipped with a 1300-μL liquid cell. Liquid scintillation cocktail and column eluate were mixed at a ratio of 2.5:1. Radioactive peaks were quantified using LC-ARC data handling software. Plasma radioactivity profiles were determined by collecting the column eluate into 96-well Deepwell LumaPlates at a rate of 0.25 min/fraction. The plates were dried and the radioactivity in each well determined using a PerkinElmer TopCount NXT Microplate Scintillation Counter. HPLC radiochromatograms were reconstructed using LC-ARC data handling software.
Pharmacokinetic data were generated by non-compartmental analysis of plasma or whole blood versus time profiles using WinNonlin (version 4.1, Enterprise Edition). […]

[2] = system: PDE4 enzyme isolated from U937 human monocytic cells; assay: PDE4 inhibition, cAMP hydrolysis assay; assay type: biochemical; details: for IC50: PDE4 from U937 cells, cAMP hydrolysis; for PDE4 and TNF-α inhibition activity compared with apremilast: both assays, in words
Method: (§1) PDE4 enzyme was isolated from U937 human monocytic cells and used for testing inhibition in a cAMP hydrolysis assay as previously described ([Schafer et al. 2010]). For the TNF-α production assay, human peripheral blood mono-nuclear cells (PBMC) were isolated from buffy coat of normal donor blood units (Blood Center of New Jersey, East Orange, NJ) by density centrifugation over Ficoll Hypaque (Pharmacia, Piscataway, NJ). Cells were cultured in RPMI 1640 (Life Technologies, Grand Island, NY) supplemented with 5% AB^+ human serum (Gemini Bio-products, Woodland, CA), 2-mM L-glutamine, 100-U/mL penicillin and 100-μg/mL streptomycin (Life Technologies). PBMC (2×10^5 cells) were plated in 96-well flat-bottom Costar tissue culture plates (Corning, NY) in duplicate. Cells were stimulated with lipopolysaccharides (LPS) (from Salmonella abortus equi; Sigma cat.no. L-1887, St.Louis, MO) at a final concentration of 1 ng/mL in the absence or presence of compounds. The compounds were dissolved in DMSO (Sigma) and subsequent dilutions were done in culture medium immediately before use. The compounds were added to cells 1 h before LPS stimulation. The cells were incubated for 16-18 h at 37°C in 5% CO2, and super-natants were then collected, diluted with culture medium and assayed for TNF-α levels by enzyme-linked immunosorbent assay (ThermoFisher, Rockford, IL). Fifty percent inhibitory concentrations (IC50) for the PDE4 enzymatic and TNF-α assay were calculated by non-linear regression analysis using Prism 5.1 (GraphPad Software). Regression curves were sigmoidal dose response curves with maximum and minimum constrained to 100% and 0%, respectively.

[3] = system: TNF-α production by human peripheral blood mononuclear cells; assay: TNF-α production assay in LPS-stimulated PBMC; assay type: cell-based; details: LPS 1 ng/mL, 16-18 h, ELISA
Method: as §1

[4] = single oral 20-mg dose, mean ± SD
[5] = radiochromatography, single oral 20-mg dose, mean ± SD
[6] = human, plasma, radiochromatography, single oral 20-mg dose, median and range

Molecule | % of dose excreted, faeces [1] | Plasma (% AUC relative to TRA); share of circulating radioactivity [1] | % of dose excreted, urine [1] | IC50 [2] [µM] | IC50 [3] [µM] | other results
CCOc1cc([C@@H](CS(C)(=O)=O)N2C(=O)c3cccc(N)c3C2=O)ccc1O [Metabolite M4, N-deacetylated, O-desmethyl apremilast] | 2.4 % of dose |  |  |  |  | 
CCOc1cc([C@@H](CS(C)(=O)=O)N2C(=O)c3cccc(N)c3C2=O)ccc1OC [Metabolite M7, N-deacetyl apremilast] | 0.1 % of dose | D | D | 0.16 | 0.13 | Concentration in circulation relative to apremilast ([1]; plasma): < 2%; PDE4 and TNF-α inhibition activity compared with apremilast [2]: IC50 values similar to those of apremilast
COc1ccc([C@@H](CS(C)(=O)=O)N2C(=O)c3cccc(NC(C)=O)c3C2=O)cc1O [Metabolite M5, O-desethyl apremilast] |  |  |  | 44 | 4.9 | 
hydroxylated N-deacetylated, O-desmethyl apremilast [Metabolite M8] | 1.0 % of dose |  |  |  |  | 
hydroxylated N-deacetylated apremilast [Metabolite M11] | 1.4 % of dose | 2.5% |  |  |  | Plasma Cmax [1, 4]: 20.2±7.6 ngEq/mL; Plasma AUC0-t [1, 5]: 139±89 ngEq*h/mL; Plasma AUC0-∞ [1, 5]: 232±151 ngEq*h/mL; Plasma t½ [1, 5]: 10.7 ± 10.2 h; Plasma Tmax ([1]; radiochromatography, single oral 20-mg dose, median and range): 1.0(0.5-2.5) h
COc1ccc([C@@H](CS(C)(=O)=O)NC(=O)c2cccc(NC(C)=O)c2C(=O)O)cc1O [Metabolite M22] | 0.6 % of dose |  |  |  |  | 
O=C(CO)Nc1cccc(C(=O)O)c1C(=O)O [Metabolite M23, hydroxy 3-acetamide-phthalic acid] | 3.0 % of dose |  |  |  |  | 
CCOc1cc([C@@H](CS(C)(=O)=O)N2C(=O)c3cccc(NC(=O)COC4OC(C(=O)O)C(O)C(O)C4O)c3C2=O)ccc1OC (some centres unmarked) [Metabolite M16] |  | 6.6% | 0.6 % of dose | 6.5 | > 10 | half-life ([1]; human, plasma, radiochromatography, single oral 20-mg dose, mean ± SD, read-out: Plasma t½ (converted)): 11 ± 2.4 h; Tmax [1, 6]: 5.3 h; Plasma Cmax [1, 4]: 27.6±26.0 ngEq/mL; Plasma AUC0-t [1, 5]: 363 ±54 ngEq*h/mL; Plasma AUC0-∞ [1, 5]: 389±91 ngEq*h/mL
CCOc1cc([C@@H](CS(C)(=O)=O)NC(=O)c2cccc(NC(C)=O)c2C(=O)O)ccc1OC [M1/M2] | 0.5 % of dose | D | 0.9 % of dose | 120 | 77 | 
CCOc1cc([C@@H](CS(C)(=O)=O)N2C(=O)c3cccc(NC(=O)CO)c3C2=O)ccc1OC [Metabolite M17] | 0.9 % of dose | D | 1.2 % of dose | 0.094 | 0.021 | Concentration in circulation relative to apremilast ([1]; plasma): < 2%; PDE4 and TNF-α inhibition activity compared with apremilast [2]: IC50 values similar to those of apremilast
COc1ccc([C@@H](CS(C)(=O)=O)N2C(=O)c3cccc(NC(C)=O)c3C2=O)cc1OC1OC(C(=O)O)C(O)C(O)C1O (some centres unmarked) [Metabolite M13] |  | 2.4% | 2.0 % of dose |  |  | Tmax [1, 6]: 2.5 h; Plasma Cmax [1, 4]: 7.5±6.8 ngEq/mL; Plasma AUC0-t [1, 5]: 133±125 ngEq*h/mL
CCOc1cc([C@@H](CS(C)(=O)=O)N2C(=O)c3cccc(NC(C)=O)c3C2=O)ccc1O [Metabolite M3, O-desmethyl apremilast] | 5 % of dose and 4.6 % of dose | D | D | 8.3 | 5.6 | Share of the excreted radioactivity / excreted dose [1]: > 4%
CCOc1cc([C@@H](CS(C)(=O)=O)N2C(=O)c3cccc(NC(=O)CO)c3C2=O)ccc1O [Metabolite M10, acetamide hydroxylated, O-desmethyl apremilast] | 1.3 % of dose |  |  |  |  | 
CCOc1cc([C@@H](CS(C)(=O)=O)NC(=O)c2cccc(NC(C)=O)c2C(=O)O)ccc1OC1OC(C(=O)O)C(O)C(O)C1O (some centres unmarked) [Metabolite M15] |  |  | 3.3 % of dose |  |  | 
CS(=O)(=O)C[C@H](c1ccc(O)c(O)c1)N1C(=O)c2cccc(N)c2C1=O [Metabolite M20, N-deacetylated, O-desmethyl, O-desethyl apremilast] | 0.5 % of dose |  |  |  |  | 
CC(=O)Nc1cccc2c1C(=O)N([C@H](CS(C)(=O)=O)c1ccc(O)c(O)c1)C2=O [Metabolite M19, O-desmethyl, O-desethyl apremilast] | 0.8 % of dose |  |  |  |  | 
CC(=O)Nc1cccc(C(=O)O)c1C(=O)O [Metabolite M18, 3-acetamide-phthalic acid] | 1.4 % of dose |  |  |  |  | 
CCOc1cc([C@@H](CS(C)(=O)=O)NC(=O)c2cccc(NC(C)=O)c2C(=O)O)ccc1O [Metabolite M9] | 8 % of dose and 7.7 % of dose |  |  |  |  | Share of the excreted radioactivity / excreted dose [1]: > 4%
